The assay addresses Envelope glycoprotein gp160 (Human immunodeficiency virus 1, UniProt Q6QLK5). Description: inhibitors of HIV fusion peptide binding, primary screen, biochemical, uHTS, fluorescence dequenching (AID 1986).

Activity calls are given as the source filed them. Rule as the data show it: actives have a measured IC50 and inactives only a lower limit.

Envelope glycoprotein gp160, sequence (Q6QLK5 whole entry, the tested form may be a part): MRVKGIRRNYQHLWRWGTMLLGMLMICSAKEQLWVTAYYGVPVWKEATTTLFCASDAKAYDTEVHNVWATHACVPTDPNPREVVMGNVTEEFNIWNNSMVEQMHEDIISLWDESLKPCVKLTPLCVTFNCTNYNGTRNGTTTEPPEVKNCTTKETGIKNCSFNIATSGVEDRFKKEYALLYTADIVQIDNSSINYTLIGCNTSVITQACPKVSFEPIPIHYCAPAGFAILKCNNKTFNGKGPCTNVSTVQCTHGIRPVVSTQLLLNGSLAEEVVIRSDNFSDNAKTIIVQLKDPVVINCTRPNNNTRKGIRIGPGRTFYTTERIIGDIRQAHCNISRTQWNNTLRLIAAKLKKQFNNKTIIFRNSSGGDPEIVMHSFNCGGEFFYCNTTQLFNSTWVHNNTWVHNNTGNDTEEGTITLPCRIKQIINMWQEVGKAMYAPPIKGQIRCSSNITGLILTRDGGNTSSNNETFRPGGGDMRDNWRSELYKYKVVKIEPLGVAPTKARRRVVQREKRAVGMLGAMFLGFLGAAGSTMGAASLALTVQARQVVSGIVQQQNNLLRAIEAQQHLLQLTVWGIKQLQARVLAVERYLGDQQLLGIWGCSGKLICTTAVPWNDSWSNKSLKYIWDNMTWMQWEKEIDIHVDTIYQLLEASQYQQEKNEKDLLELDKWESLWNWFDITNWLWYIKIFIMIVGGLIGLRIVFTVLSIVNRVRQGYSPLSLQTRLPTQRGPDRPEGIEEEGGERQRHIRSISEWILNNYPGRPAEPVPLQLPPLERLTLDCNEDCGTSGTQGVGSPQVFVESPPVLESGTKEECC

In general, IC50 refers to the concentration needed to halve the response being measured. As for `N#Cc1c(O)nc(SCc2cccc(Cl)c2)nc1-c1ccccc1`, the IC50 is 24.8 µM (active).
For the compound `O=C(O)c1cc(N/N=C/c2ccc(-c3ccccc3)cc2)ccc1Cl`, the IC50 is 16.1 µM (active).

(Values after ChEMBL document CHEMBL1201862, “PubChem BioAssay data set” (2004).)
